Data reported in US5352810A, “Phosphatidylinositol analogues, inhibitors of phosphatidylinositol specific phospholipase C” (Mediolanum Farmaceutici S.p.A., priority 1991, dated 1994).

Legend:
[1] = target: phosphatidylinositol-specific phospholipase C (PLC); test: Inhibition of phosphatidylinositol-specific phospholipase C enzymatic activity (hydrolysis of [3H]phosphatidylinositol); format: biochemical; settings: soluble fraction of human platelets; 20 min preincubation, 15 min reaction, pH 6.5, 37° C.; read-out: IC50 (Inhibitor concentration inhibiting 50% of the enzyme)
Procedure: The following experiments were carried out with the compounds prepared in the Examples 1-5 above mentioned in order to evaluate their ability to inhibit the enzymatic activity of phosphatidylinositol-specific phospholipase C (PLC).
The test were carried out according to the following operations.
1. Preparation of phosphatidylinositol-specific phospholipase C enzyme from human platelets.
As the starting material human plasma enriched with human platelets was used.
Platelets were precipitated from plasma by centrifugation at 0°-4° C. for 30 minutes at 2,500×g. The platelets precipitate was washed twice by using a buffer "A" Hepes pH 7 (137 mM NaCl, 20 mM Hepes; 1.0 mM EGTA; 5 mM glucose) and successively recovered by using buffer "B" Hepes (10 mM Hepes, pH 7).
The platelets were sonicated and centrifuged at 3,200×g for 20 minutes at 0-4° C. The surnatant consisting of platelets homogenate, was separated and ultracentrifuged at 105,000×g for 1 hour, thereby obtaining two fractions: the soluble one and the particulate one, both containing PLC.
2. Preparation of phosphatidylinositol substrate.
The substrate marked for PLC, L-3-phosphatidyl [2-^3 H] inositol, cod. […]
The product was purified by HPLC and had the following characteristics: specific activity 20 Ci/mMol (22.6 mCi/mg), radioactivity concentration 50μCi/ml ([…]=1.85 ×10^6 Bq); the hydroxyl groups 1 and 2 of glycerol resulted esterified with stearic acid and arachidonic acid in 90% of the product.
1 ml of a chloroform solution containing L-phosphatidylinositol (10 mg/ml sigma cod P 25/7 containing mainly stearic acid and arachidonic acid) was taken. […] Marked phosphatidylinositol was added to 9 ml of said solution in such an amount that in 300μl of the solution (2.0× 10^-4 M) thus obtained, 130,078±1316 Dpm were recorded. […]
In order to determine the inhibitory activity of the compounds of the present invention, said compounds and the enzyme were preincubated for 20 minutes. […] A suitable aliquot of the aqueous phase was utilized for the scintillatot readings.

[2] = test system: K562 erythroleukaemia cell line; test: In vitro antitumoral activity / toxicity assay (propidium iodide, flow cytofluorometry); format: cell-based; settings: FIG. 1
Procedure: The compound described in example 1.3 and named 309 bis was tested to evaluate the "in vitro" antitumoral activity according to the following method:
Cell cultures. K562 erythroleukaemia cell line was obtained from ATCC (Rockville, Md., USA). Cell culture media and plastic were from Flow (U.K.). Cells were grown in RPMI 1640 medium supplemented with 10% (v/v) heat-inactivated foetal calf serum, 2mM L-glutamine, 2.0 g.1^-1 bicarbonate, and 10 mM Hepes (4-(2-hydroxyethyl)-1-piperazine ethanesulphonic acid) in humidified atmosphere with 5% (v/v) CO2 at 37° C. Coltures were performed without the addition of any antibiotics, and were routinely checked for the presence of Mycoplasma infection.
Toxicity assay. Cells were washed and suspended to the final concentration of 10^6 ml^-1 in a medium containing 5% (v/v) FCS. The chemical compounds under evaluation were diluted from a 2 mM stock solution containing 5% (v/v) FCS and 0.2% (v/v) dimethylsulphoxide (DMSO, FCS and medium were added in sequence to facilitate solubility); when necessary, solutions were treated with short sonical pulses. 0.2% DMSO was added to controls. […] The 560-580 nm fluorescence of the death cells, excited at 490-495 nm, was monitored on a FACS-analizer flow cytofluorometer (Becton Dickinson, Calif., USA) using a Consort 30 programme. […]

Row | SMILES | IC50 [1] | % toxicity (percentage of killed cells), maximum ([2]; concentration 10^-3 -3×10^-3 M) | antitumoral activity on erythroleukaemic cells ([2]; concentration 10^-5 M)
1 | CCCCCCCCSP(=O)(O)O[C@@H]1[C@H](O)[C@H](O)[C@@H](O)[C@H](O)[C@H]1O (relative stereo) [Example 5.3, 1-O-(OCTYLPHOSPHOTHIOLYL)-MYO-INOSITOL] | > 100 µM |  | 
2 | CCCCCCCCCCCCCCSP(=O)(O)O[C@@H]1[C@H](O)[C@H](O)[C@@H](O)[C@H](O)[C@H]1O (relative stereo) [Example 3.3, 1-O-(TETRADECYLPHOSPHOTHIOLYL)-MYO-INOSITOL] | ~100 µM |  | 
3 | CCCCCCCCCCCCCCCCCCSP(=O)(O)O[C@@H]1[C@H](O)[C@H](O)[C@@H](O)[C@H](O)[C@H]1O (relative stereo) [Example 1.3, 1-O-(OCTADECYLPHOSPHOTHIOLYL)-MYO-INOSITOL] |  | ~100% | shows antitumoral activity
4 | CCCCCCCCCCCCSP(=O)(O)O[C@@H]1[C@H](O)[C@H](O)[C@@H](O)[C@H](O)[C@H]1O (relative stereo) [Example 4.3, 1-O-(DODECYLPHOSPHOTHIOLYL)-MYO-INOSITOL] | > 100 µM |  | 
